Source: BindingDB's records for doi:10.7270/Q2959G44 (Burnham Center For Chemical Genomics, 2012)

Target: Dual specificity protein phosphatase 3 (Homo sapiens, UniProt P51452)
Assay: VHR phosphatase inhibition, dose response, selectivity assay for STEP inhibitor project, biochemical (AID 602374)

Chain of Dual specificity protein phosphatase 3 (P51452 whole entry): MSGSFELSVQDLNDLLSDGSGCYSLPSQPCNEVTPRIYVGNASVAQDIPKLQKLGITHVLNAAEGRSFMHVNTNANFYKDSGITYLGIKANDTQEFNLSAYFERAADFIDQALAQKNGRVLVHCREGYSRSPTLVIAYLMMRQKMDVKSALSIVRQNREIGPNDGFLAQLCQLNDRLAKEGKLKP

SMILES | IC50 [nM]
S=C1N=C(C23CC4CC(CC(C4)C2)C3)CC(c2ccc3c(c2)OCO3)N1 (stereo not given) | 3520
CCN(CC)P(=O)(NC(=O)C(Cl)(Cl)Cl)N(CC)CC [MLS000564159] | 3250
O=C(N/N=C/C1C=CC=CC1=O)c1cccc([N+](=O)[O-])c1 (stereo not given) [MLS002667988] | 3130
COc1ccc(CN=Nc2nc(O)c(CC(=O)O)s2)cc1OCc1ccc(Cl)cc1Cl [[2-({3-[(2,4-dichlorobenzyl)oxy]-4-methoxybenzylidene}hydrazono)-4-oxo-1,3-thiazolidin-5-yl]acetic acid] | 4790
O=C1C(=O)N(CCCO)C(c2ccc(Br)cc2)C1C(=O)c1ccc(Br)cc1 (stereo not given) [(4E)-5-(4-bromophenyl)-4-[(4-bromophenyl)-oxidanyl-methylidene]-1-(3-oxidanylpropyl)pyrrolidine-2,3-dione] | 73400

Stronger by IC50, values ahead:

IC50 [nM] | SMILES
1230 | S=C1N=C2C(=C3SCCS3)CCCC2C(c2ccccc2)N1 (stereo not given) [MLS000516376]
1270 | C=c1c(O)c(O)c(=C2C(=O)C(=O)C(C)C(=O)C2=O)c(O)c1O (stereo not given) [(3E)-5-hydroxy-6-methyl-3-(2,3,5-trihydroxy-4-methyl-6-oxo-1-cyclohexa-2,4-dienylidene)cyclohex-5-ene-1,2,4-trione]
2420 | CCOc1cc(CN=Nc2nc(O)c(CC(=O)O)s2)ccc1OCc1ccc(Cl)cc1Cl [2-[2-[(N''E)-N''-[4-(2,4-dichlorobenzyl)oxy-3-ethoxy-benzylidene]hydrazino]-4-keto-2-thiazolin-5-yl]acetic acid]
833 | COc1ccc(OC)c(-n2c(O)c3o[nH]c(-c4ccccc4Cl)c-3c2=O)c1 [SMR000046218]
1270 | CSc1ccc(CN=Nc2ccc(S(=O)(=O)Nc3ccccc3C(=O)O)cc2[N+](=O)[O-])cc1 [MLS002245633]
